Results taken from PMC3246799 (Science (New York, N.Y.), 2011).

Molecular target: T1, AHR2-2 (tomcod AHR2) (Microgadus tomcod, UniProt B6E9W5)
T1 sequence (B6E9W5 1-1104): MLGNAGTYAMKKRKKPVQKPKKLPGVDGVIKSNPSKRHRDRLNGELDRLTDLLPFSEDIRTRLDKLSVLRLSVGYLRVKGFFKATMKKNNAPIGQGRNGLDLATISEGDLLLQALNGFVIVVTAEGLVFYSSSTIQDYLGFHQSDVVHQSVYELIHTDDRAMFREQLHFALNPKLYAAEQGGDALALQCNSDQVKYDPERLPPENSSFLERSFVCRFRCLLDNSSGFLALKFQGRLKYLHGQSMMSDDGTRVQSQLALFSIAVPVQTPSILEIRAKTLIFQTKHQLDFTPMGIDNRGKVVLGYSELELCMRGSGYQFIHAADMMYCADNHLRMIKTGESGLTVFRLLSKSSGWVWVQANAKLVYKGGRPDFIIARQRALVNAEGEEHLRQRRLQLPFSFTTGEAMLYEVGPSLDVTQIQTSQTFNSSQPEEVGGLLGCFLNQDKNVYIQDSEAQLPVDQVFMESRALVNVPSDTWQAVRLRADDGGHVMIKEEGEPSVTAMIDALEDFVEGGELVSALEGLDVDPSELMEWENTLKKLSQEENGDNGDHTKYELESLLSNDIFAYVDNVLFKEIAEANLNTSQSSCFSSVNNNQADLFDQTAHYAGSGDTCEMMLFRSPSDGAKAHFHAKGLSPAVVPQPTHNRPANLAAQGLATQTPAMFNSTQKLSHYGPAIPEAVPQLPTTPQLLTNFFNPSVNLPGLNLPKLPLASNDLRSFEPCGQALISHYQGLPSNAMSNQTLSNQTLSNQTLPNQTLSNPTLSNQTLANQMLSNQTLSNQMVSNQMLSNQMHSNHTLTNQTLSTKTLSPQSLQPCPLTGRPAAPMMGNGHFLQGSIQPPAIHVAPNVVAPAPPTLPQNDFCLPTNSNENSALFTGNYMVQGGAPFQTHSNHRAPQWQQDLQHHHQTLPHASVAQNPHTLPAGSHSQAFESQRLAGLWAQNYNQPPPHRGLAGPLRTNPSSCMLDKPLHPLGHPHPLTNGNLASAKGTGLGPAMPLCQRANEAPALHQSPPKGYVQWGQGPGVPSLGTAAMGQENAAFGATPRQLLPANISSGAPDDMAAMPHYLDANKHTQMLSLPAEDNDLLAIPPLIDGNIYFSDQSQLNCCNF
Experiment: saturation binding of [3H]TCDD, velocity sedimentation on sucrose gradients
Conditions: labelled compound; 0.1 to 12 nM [3H]TCDD; apparent equilibrium constant

SMILES: Clc1cc2c(cc1Cl)Oc1cc(Cl)c(Cl)cc1O2 [TCDD, 2,3,7,8-tetrachlorodibenzo-p-dioxin]
- Kd: 1.27 nM
